Some test systems named below: KM12 colon; MOLT-4 leukemia; HOP-62 NSCLC; SK-OV-3 ovarian; IGROV1 ovarian; NCI/ADR-RES ovarian; PC-3 prostate; SK-MEL-2 melanoma; NCI-H226 lung; BT-549 breast.
What all share (test): inhibition of tumour cell growth, NCI panel, 48 h

Experimental findings from PubChem BioAssay (NCI) are described below.

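Compound exposure: 48 hours, 5 concentrations, 96-well plates. The concentration for 50% growth inhibition is given as GI50. TGI is the concentration that stops growth completely.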

Regarding `C=C1C(=O)O[C@H]2[C@H]1CC/C(COC(=O)c1cccc3ccccc13)=C\CC[C@@]1(C)O[C@@H]21`, the GI50 with KM12 colon was 2.07 µM; with MOLT-4 leukemia, 2.95 µM; in the assay on HOP-62 NSCLC it was 1.76 µM; with SK-OV-3 ovarian, 11.6 µM; in the assay with IGROV1 ovarian, 1.03 µM; in the assay with NCI/ADR-RES ovarian, 2.19 µM. The GI50 in the assay with PC-3 prostate is 1.57 µM; with SK-MEL-2 melanoma, 1.63 µM; with NCI-H226 lung it was 1.29 µM; in the assay with BT-549 breast, 1.05 µM. Besides, the TGI came out at 4.99 µM in the assay with KM12 colon; 12.8 µM in the assay on MOLT-4 leukemia; 3.68 µM in the assay on HOP-62 NSCLC; 23.7 µM with SK-OV-3 ovarian; 2.79 µM with IGROV1 ovarian; 6.45 µM with NCI/ADR-RES ovarian. The TGI came to 3.14 µM in the assay on PC-3 prostate, 3.38 µM in the assay with SK-MEL-2 melanoma, 2.83 µM in the assay on NCI-H226 lung and 2.37 µM with BT-549 breast.
